# Measured values: ChEMBL document CHEMBL1201862, “PubChem BioAssay data set” (2004)
# Active and inactive are the calls of the source.
# What was measured:
# [1] = HEK-293T viability loss after treatment – luminescence, T-cell screen hits, cytotoxicity control for TCR NF-kB inhibitor project, dose response (AID 489026); type: functional, cell-based;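 further: cells exposed to compound about 14 hours before the viability readout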
# Estrogen receptor = biological target: T1, Estrogen receptor (Homo sapiens, UniProt P03372); experiment: ERα coactivator recruitment enhancers – biochemical, TR-FRET, ERα LBD, dose response (AID 737)
# T1 sequence (P03372 whole entry): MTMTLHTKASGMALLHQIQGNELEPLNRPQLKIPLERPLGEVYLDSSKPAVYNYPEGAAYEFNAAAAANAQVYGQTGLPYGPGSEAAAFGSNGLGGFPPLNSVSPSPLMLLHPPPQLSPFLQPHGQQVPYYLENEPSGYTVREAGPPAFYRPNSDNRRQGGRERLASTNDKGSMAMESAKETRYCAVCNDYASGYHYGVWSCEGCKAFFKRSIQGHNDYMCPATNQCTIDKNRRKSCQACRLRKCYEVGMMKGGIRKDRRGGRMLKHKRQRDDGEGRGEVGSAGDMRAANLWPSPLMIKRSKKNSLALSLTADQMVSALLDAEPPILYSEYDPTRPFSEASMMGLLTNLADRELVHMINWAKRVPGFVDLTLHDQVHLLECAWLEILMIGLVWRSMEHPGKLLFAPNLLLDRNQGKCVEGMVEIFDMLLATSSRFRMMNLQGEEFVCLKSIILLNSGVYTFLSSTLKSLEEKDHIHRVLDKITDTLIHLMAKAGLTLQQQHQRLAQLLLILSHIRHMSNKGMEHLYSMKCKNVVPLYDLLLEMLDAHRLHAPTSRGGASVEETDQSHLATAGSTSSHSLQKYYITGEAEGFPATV
# [2] = luciferase reporter signal reduction – luminescence, H4-C neuroglioblastoma cells, dose response (AID 2458); type: functional, cell-based;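 further: H4 neuroglioblastoma cells stably carrying a luciferase reporter gene fusion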
# [3] = alpha-synuclein stem-loop translation blockers – luminescence, H4 neuroglioblastoma cells, dose confirmation, confirmation (AID 2454); type: functional, cell-based;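 further: H4 neuroglioblastoma cells carrying an alpha-synuclein 5'UTR luciferase reporter; potency for inhibition of the luciferase signal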
# [4] = alpha-synuclein stem-loop luciferase translation blockers – H4 neuroglioma cells, luminescence, confirmation (AID 1988); type: functional, cell-based
# Streptokinase A = biological target: T2, Streptokinase A (Streptococcus pyogenes serotype M1, UniProt P10520); experiment: viability-normalized secreted streptokinase activity reduction – plasminogen activation absorbance, OD405, dose response (AID 1914); type: functional, Streptococcus pyogenes M1 GAS;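 further: secreted streptokinase activity via plasminogen activation per viability signal from cell pellet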
# T2 sequence (P10520 whole entry): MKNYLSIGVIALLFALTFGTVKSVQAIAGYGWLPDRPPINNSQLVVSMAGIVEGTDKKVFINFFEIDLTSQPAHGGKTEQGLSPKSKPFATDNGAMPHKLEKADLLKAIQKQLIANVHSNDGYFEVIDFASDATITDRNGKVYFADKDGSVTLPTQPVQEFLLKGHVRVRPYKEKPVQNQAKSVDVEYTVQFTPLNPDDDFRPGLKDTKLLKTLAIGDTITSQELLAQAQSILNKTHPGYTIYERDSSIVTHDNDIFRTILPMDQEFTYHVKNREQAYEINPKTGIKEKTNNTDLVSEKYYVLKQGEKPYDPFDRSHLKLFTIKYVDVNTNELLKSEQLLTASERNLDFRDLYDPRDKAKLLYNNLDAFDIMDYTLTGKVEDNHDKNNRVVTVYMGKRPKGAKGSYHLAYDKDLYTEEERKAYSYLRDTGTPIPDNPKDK
# [5] = luciferase reporter signal suppression in cells – H4 neuroglioma cells, luminescence, dose response (AID 1990); type: functional, cell-based
# [6] = viability loss of HPDE-C7K cells – cell-based, fluorescence, HTS, primary screen (AID 431); type: functional; conditions: Homo sapiens
# [7] = HPDE-C7 pancreatic duct cell viability loss – fluorescence, HTS (AID 430); type: functional, cell-based; conditions: Homo sapiens
# [8] = Luminescence Cell-Based Dose Response HTS to Identify Inhibitors of 5'UTR Stem-Loop Driven Prion Protein mRNA Translation in H4 Neuroglioblastoma Cells. [Related pubchem assays: 1827 (Project Summary), 1813 (Primary HTS)]; type: functional
# Streptococcus = experiment: GAS UMAA2166 growth inhibition – luminescence, BacTiterGlo, counter-screen for streptokinase expression inhibitor project, dose response (AID 1915); type: functional, organism-based;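 further: potency for reduction of bacterial viability or growth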
# [9] = tested on: Streptococcus sp. 'group A'; experiment: Streptococcus pyogenes SK(-)GAS viability under kanamycin – luminescence, BacTiterGlo, confirmation, counter-screen for streptokinase expression inhibitor project, dose response (AID 1900); type: functional, organism-based
# cells = type: functional, cell-based
# [10] = biological target: T3, Neuropeptide Y receptor type 1 (Homo sapiens, UniProt P25929); type: functional;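 further: HEK293 cells with a CNG channel challenged with NPY then isoproterenol; potency as antagonist that reverses NPY suppression of cAMP signal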
# T3 sequence (P25929 whole entry): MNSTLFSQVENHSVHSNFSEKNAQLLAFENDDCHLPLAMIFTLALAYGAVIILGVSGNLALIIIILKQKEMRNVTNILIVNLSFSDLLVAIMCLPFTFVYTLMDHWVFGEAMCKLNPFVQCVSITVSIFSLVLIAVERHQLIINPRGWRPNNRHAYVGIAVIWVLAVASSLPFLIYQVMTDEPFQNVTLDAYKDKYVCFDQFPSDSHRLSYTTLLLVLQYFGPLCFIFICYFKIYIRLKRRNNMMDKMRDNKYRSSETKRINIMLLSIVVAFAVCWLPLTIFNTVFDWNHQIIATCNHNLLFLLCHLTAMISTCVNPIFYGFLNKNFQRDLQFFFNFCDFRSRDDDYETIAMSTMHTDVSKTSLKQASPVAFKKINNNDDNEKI
# [11] = biological target: T4, Neuropeptide Y receptor type 2 (Homo sapiens, UniProt P49146); type: functional, cell-based;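 further: HEK293 cells expressing the receptor and a CNG channel; stimulus was NPY near EC95 followed by isoproterenol to raise cAMP; antagonist potency measured as restoring cAMP signal that NPY suppresses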
# T4 sequence (P49146 whole entry): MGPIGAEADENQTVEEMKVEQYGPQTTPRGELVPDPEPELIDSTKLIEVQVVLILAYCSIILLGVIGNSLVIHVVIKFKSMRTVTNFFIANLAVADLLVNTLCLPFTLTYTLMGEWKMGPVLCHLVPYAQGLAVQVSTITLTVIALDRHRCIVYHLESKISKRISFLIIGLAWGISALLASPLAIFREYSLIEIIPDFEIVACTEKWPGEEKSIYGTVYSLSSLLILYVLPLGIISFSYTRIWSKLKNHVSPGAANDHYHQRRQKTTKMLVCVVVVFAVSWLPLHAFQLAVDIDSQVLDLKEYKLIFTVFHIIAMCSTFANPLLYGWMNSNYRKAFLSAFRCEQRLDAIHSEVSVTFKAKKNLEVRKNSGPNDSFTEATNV
# [12] = biological target: G-protein coupled receptor 35 (Homo sapiens, UniProt Q9HC97); experiment: inhibition of zaprinast-stimulated GPR35 beta-arrestin translocation – imaging, U2OS, beta-arrestin-GFP, zaprinast agonist, primary screen (AID 2058); type: functional;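 further: antagonist potency meaning inhibition of agonist-induced arrestin redistribution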
# [13] = biological target: Neurotensin receptor type 1 (Homo sapiens, UniProt P30989); type: functional;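 further: Image-based confirmatory dose-response assay measuring agonist activity at NTR1; NTR1-expressing U2OS osteosarcoma cells imaged for beta-arrestin GFP spot formation; agonist potency where compounds increase beta-arrestin recruitment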
# Cytochrome P450 3A4 = Cytochrome P450 3A4 (Homo sapiens, UniProt P08684); conditions: Potency;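 further: confirmatory qHTS run detecting inhibitors and substrates of CYP3A4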
# [14] = biological target: Melanin-concentrating hormone receptor 1 (Homo sapiens, UniProt Q99705); experiment: Late-stage fluorescence-based counterscreen for antagonists of the G-protein coupled receptor 7 (GPR7): cell-based dose response assay to identify antagonists of the melanin-concentrating hormone receptor 1 (MCHR1). [Related pubchem assays (depositor defined):AID1861, AID1880, AID1952, AID2148, AID2251, AID2257, AID485339]; type: functional;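 further: stimulated with 30 nM MCH peptide agonist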
# SUMO-activating enzyme [15] = biological target: T5, SUMO-activating enzyme (Homo sapiens, UniProt Q9UBT2); experiment: blockers of UBC9-mediated SUMO conjugation – biochemical, AlphaScreen, SUMOylation inhibitor project, confirmation (AID 2018); type: functional
# [16] = biological target: 26S proteasome non-ATPase regulatory subunit 14 (Homo sapiens, UniProt O00487); experiment: inhibition of proteasome subunit RPN11 – biochemical, fluorescence polarization, uHTS hits, confirmation (AID 602368); type: functional
# [17] = biological target: 72 kDa type IV collagenase (Homo sapiens, UniProt P08253); experiment: Dose Response validation of uHTS RPN11 inhibitor hits using a MMP-2 Fluorescence assay.; type: functional
# [18] = biological target: T6, Small ubiquitin-related modifier 1 (Homo sapiens, UniProt P63165); experiment: SUMO1 protein interaction blockers, potency – biochemical, fluorescence polarization, uHTS hits, dose response (AID 624382); type: functional; conditions: read-out: IC50_Mean
# SUMO-activating enzyme [19] = biological target: T5, SUMO-activating enzyme; experiment: blockers of SAE1/SAE2–UBC9 SUMO transfer – biochemical, HTRF, uHTS, primary screen (AID 2006); type: protein-complex assay
# Prothrombin = Prothrombin (Bos taurus, UniProt P00735); experiment: thrombin protease inhibitors – biochemical, fluorescence polarization, uHTS hits, dose response (AID 602369); type: functional
# [20] = biological target: T6, Small ubiquitin-related modifier 1; experiment: SUMO1 protein-protein binding blockers, potency – biochemical, FRET, dose response (AID 624383); type: functional; conditions: read-out: IC50_Mean
# [21] = Luminescence Cell-Based Dose Retest to Confirm Inhibitors of Cancer Stem Cells. [Related pubchem assays (depositor defined):AID2717, AID2721]; type: functional; conditions: Homo sapiens
# Chain of Cytochrome P450 3A4 (P08684 whole entry): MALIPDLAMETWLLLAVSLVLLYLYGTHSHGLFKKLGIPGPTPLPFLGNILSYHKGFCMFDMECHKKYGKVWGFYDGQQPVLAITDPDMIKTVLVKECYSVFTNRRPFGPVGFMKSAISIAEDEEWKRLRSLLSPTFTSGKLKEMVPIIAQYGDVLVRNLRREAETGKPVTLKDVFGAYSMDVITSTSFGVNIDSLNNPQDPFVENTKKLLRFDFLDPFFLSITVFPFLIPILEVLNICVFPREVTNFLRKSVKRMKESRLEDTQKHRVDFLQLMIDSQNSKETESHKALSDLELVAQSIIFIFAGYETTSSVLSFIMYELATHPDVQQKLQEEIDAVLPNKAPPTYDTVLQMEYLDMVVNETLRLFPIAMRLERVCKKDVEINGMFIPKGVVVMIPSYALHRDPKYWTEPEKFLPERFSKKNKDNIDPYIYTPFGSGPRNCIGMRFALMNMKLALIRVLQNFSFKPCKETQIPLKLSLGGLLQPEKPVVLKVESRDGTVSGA
# T5 sequence (Q9UBE0 whole entry): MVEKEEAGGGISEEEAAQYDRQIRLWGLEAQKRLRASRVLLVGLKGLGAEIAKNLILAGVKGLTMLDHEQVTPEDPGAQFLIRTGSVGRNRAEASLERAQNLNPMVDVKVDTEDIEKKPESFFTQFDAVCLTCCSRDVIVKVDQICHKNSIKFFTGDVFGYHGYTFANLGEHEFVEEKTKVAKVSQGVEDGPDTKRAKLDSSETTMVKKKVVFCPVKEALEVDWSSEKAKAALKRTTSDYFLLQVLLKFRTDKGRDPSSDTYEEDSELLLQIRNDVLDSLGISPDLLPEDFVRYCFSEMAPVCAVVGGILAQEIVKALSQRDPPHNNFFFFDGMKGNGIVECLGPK
# T5 sequence (Q9UBT2 whole entry): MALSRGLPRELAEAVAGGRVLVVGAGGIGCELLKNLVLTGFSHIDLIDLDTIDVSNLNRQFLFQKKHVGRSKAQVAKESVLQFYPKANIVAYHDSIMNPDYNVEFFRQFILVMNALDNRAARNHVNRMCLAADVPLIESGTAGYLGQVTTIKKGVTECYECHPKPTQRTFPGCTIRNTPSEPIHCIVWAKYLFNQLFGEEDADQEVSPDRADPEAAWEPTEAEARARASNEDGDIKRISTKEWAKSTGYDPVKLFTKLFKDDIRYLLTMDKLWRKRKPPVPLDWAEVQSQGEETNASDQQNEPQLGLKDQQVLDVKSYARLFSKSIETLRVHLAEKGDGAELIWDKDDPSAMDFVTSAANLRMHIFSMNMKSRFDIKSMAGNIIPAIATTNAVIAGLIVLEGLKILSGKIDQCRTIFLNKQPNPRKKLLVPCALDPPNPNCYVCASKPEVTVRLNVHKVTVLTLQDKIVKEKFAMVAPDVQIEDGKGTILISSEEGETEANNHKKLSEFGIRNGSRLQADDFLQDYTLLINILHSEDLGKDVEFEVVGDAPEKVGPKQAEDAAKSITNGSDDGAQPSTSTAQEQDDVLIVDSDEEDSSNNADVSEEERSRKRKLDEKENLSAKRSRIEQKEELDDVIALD
# T6 sequence (P63165 whole entry): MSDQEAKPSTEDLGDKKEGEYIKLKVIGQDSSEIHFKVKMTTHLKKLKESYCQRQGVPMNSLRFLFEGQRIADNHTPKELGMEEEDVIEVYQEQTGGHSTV
# Chain of Neurotensin receptor type 1 (P30989 whole entry): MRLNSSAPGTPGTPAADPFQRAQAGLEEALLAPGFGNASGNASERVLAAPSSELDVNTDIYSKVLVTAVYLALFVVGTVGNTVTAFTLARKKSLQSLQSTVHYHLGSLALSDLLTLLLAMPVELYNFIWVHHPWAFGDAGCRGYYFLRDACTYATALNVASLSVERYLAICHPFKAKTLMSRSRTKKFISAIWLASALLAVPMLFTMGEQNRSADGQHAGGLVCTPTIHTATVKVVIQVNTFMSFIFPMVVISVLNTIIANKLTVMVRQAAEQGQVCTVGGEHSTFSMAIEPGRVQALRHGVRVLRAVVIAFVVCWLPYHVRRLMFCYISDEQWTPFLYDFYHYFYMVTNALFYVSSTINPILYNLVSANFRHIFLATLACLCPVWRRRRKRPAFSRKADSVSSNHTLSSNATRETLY
# Chain of 72 kDa type IV collagenase (P08253 whole entry): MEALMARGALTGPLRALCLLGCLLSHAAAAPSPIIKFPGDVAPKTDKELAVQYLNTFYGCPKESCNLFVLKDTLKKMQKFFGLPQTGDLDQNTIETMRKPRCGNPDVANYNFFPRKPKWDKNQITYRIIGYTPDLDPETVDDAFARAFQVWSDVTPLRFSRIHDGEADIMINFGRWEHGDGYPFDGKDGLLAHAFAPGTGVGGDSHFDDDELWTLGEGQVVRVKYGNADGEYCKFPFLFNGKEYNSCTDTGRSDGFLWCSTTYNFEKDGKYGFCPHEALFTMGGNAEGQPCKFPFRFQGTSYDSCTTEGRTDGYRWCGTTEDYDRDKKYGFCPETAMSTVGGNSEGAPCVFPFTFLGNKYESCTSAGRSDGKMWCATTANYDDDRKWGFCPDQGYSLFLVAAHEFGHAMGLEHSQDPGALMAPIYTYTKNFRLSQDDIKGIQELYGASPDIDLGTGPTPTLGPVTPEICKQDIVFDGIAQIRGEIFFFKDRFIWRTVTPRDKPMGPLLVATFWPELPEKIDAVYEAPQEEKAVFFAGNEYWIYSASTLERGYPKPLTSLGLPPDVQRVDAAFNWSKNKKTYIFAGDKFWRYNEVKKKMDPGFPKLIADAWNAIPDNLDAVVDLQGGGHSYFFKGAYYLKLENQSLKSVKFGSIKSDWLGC
# Chain of 26S proteasome non-ATPase regulatory subunit 14 (O00487 whole entry): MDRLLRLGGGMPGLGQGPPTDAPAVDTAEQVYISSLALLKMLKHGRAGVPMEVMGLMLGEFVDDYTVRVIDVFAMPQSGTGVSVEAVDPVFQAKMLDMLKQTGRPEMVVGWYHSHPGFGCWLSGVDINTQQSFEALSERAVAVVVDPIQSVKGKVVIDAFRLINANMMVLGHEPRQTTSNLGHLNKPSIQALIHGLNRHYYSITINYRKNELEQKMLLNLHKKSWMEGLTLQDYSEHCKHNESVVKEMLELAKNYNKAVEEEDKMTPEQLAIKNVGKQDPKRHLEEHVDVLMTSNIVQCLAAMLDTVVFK
# Chain of Melanin-concentrating hormone receptor 1 (Q99705 whole entry): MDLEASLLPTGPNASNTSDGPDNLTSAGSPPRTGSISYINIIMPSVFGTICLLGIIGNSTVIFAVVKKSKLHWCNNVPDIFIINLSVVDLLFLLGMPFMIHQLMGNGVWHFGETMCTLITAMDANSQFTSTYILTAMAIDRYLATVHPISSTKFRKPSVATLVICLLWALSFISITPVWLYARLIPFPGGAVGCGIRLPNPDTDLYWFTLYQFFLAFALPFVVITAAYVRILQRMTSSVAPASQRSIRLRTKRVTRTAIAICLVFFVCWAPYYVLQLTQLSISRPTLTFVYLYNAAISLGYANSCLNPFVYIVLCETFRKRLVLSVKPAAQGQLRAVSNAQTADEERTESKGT
# Chain of G-protein coupled receptor 35 (Q9HC97 whole entry): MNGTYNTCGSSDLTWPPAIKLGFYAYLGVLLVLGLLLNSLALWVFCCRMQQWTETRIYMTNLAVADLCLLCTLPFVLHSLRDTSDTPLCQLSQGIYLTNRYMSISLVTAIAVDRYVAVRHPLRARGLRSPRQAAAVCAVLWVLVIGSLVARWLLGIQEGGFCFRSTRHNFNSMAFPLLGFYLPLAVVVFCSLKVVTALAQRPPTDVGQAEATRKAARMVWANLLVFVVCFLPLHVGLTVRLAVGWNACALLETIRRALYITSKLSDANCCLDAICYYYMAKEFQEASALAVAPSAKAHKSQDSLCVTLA
compound,measurement,setting,value
CCN(CC)c1ccc(-c2nn3c(-c4ccccc4OC)nnc3s2)cc1,IC50,[1],49.9 µM (inactive)
same,EC50,Estrogen receptor,18.2 µM (active)
same,EC50,[2],0.214 µM (active)
same,EC50,[3],0.17 µM (active)
same,EC50,[4],< 0.1 µM (active)
same,EC50,Streptokinase A,> 150 µM (not active)
same,EC50,[5],< 0.1 µM (active)
same,EC50,[6],> 20 µM (not active)
same,EC50,[7],> 20 µM (not active)
same,EC50,[8],8.94 µM (active)
same,EC50,Streptococcus,8.67 µM (active)
same,EC50,[9],6.86 µM (active)
same,EC50,cells,0.346 µM (active)
COC(=O)c1cc2occc2n1Cc1nc(-c2ccccc2Cl)oc1C,IC50,[10],7.7 µM (active)
same,IC50,[11],8.2 µM (active)
CCOC(=O)c1c(-c2ccccc2)csc1NC(=O)/C(C#N)=C/c1ccc(O)c(OC)c1,IC50,[12],2.75 µM (active)
Cc1cccc(NC(=O)c2nc[nH]c2C(=O)N[C@@H](Cc2ccccc2)C(=O)OC(C)(C)C)c1,EC50,[13],17.9 µM (active)
same,EC50,Streptokinase A,> 150 µM (not active)
CCCn1c(-c2ccc(F)cc2)nc2c(NCC3CCN(C)CC3)nc(C)nc21,AC50,Cytochrome P450 3A4,15.8 µM (inconclusive)
COc1ccc(-c2[nH]nc3c2C(c2ccc(OC)c(OC)c2)N(c2ccccc2)C3=O)cc1 (stereo not given),IC50,[10],7.8 µM (active)
same,IC50,[11],4.36 µM (active)
CC(=O)OC1CC2C(C)(C)C=CC(=O)[C@@]2(C)C2CC[C@@]3(C)C(c4ccoc4)OC(=O)C4OC43[C@]12C (stereo not given in full),AC50,Cytochrome P450 3A4,15.8 µM (inconclusive)
COc1ccc(Oc2c(Cl)cnn(-c3cccc4c3CCCC4)c2=O)cc1,IC50,[14],4.1 µM (active)
Sc1nnc(-c2cc(-c3ccccc3)[nH]n2)n1/N=C/c1cccc(Cl)c1,IC50,SUMO-activating enzyme [15],3.34 µM (active)
same,IC50,[16],11.4 µM (active)
same,IC50,[17],> 100 µM (inactive)
same,EC50,Streptokinase A,> 150 µM (not active)
same,IC50,[18],> 66.6 µM (inactive)
same,IC50,SUMO-activating enzyme [19],11.1 µM (active)
same,IC50,Prothrombin,33.8 µM (active)
same,EC50,Streptococcus,84.4 µM (active)
same,EC50,[9],16.7 µM (active)
same,IC50,[20],5.8 µM (active)
CCCCNc1c(-c2cccc(Sc3ccc(OC)cc3)c2)nc2ccccn12,AC50,[21],5.22 µM (active)
same,EC50,[13],27.5 µM (inactive)
